Columns and labels:
SARS-CoV-1 Protein E = SARS-CoV-1 Protein E (Severe acute respiratory syndrome-related coronavirus, UniProt P59637); format: cell-based
SARS-CoV-2 Protein E = SARS-CoV-2 Protein E (Severe acute respiratory syndrome coronavirus 2, UniProt P0DTC4); experiment: two-electrode voltage clamp, X. laevis oocytes; conditions: read-out: % block at 10 μM
ORF7b = target: T1, ORF7b (Severe acute respiratory syndrome coronavirus 2, UniProt P0DTD8)
T1 construct: gene 7b
T1 sequence (P0DTD8 whole entry): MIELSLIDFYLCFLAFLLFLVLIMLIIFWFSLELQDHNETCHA

Sequence of SARS-CoV-1 Protein E (P59637 whole entry, looked up): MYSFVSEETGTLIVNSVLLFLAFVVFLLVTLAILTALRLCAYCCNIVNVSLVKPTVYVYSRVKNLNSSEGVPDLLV
Sequence of SARS-CoV-2 Protein E (P0DTC4 whole entry): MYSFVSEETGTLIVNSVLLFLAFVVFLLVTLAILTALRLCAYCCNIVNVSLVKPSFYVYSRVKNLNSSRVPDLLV

Cc1cc(O)c2c(c1)C(=O)c1cc(O)cc(O)c1C2=O [emodin]
% block (SARS-CoV-1 Protein E): HMA and emodin blocked the Protein E ion channels from both SARS-CoV-1 and -2
inhibition at 10 µM (SARS-CoV-2 Protein E): 60%
% reduction in current at 10 μM (ORF7b): 79%

NC12CC3CC(CC(C3)C1)C2 [amantadine]
inhibition at 10 µM (SARS-CoV-2 Protein E): 77%

C1C2CC3CC1CC(C2)C3 [adamantane]
% block (SARS-CoV-1 Protein E): adamantane that also blocked Protein E from SARS-CoV-1, but not that of SARS-CoV-2

N=C(N)NC(=O)c1nc(Cl)c(N2CCCCCC2)nc1N [hexamethylene-amiloride]
% block (SARS-CoV-1 Protein E): HMA and emodin blocked the Protein E ion channels from both SARS-CoV-1 and -2
inhibition at 10 µM (SARS-CoV-2 Protein E): 50%

c1ccc2c(c1)Cc1ccccc1O2 [xanthene]
inhibition at 10 µM (SARS-CoV-2 Protein E): 80%
% reduction in current at 10 μM (ORF7b): 47%

Source: publication PMC8636635 (Communications Biology, 2021)
